Assay results taken from ChEMBL document CHEMBL4699480 (J Med Chem, 2020).
Active and inactive are the calls of the source. No cut-off for these calls is given here.

Columns and labels:
[1] = Cytotoxicity in human PD002 cells assessed as phase area confluence level at 50 uM incubated for 72 hrs by IncuCyte live cell analysis imaging system based assay (reference value: 70%)
HCT-116 [2] = experiment: Cytotoxicity in human HCT-116 cells assessed as reduction in cell viability incubated for 72 hrs by MTT assay; type: functional, cell-based; settings: HCT-116, 72 h
CAPAN-1 [3] = experiment: Inhibition of DPAGT1 protein expression in human CAPAN-1 cells at 0.2 uM incubated for 24 hrs by Western blot analysis; type: functional, cell-based
DLD-1 = experiment: Cytotoxicity in human DLD-1 cells assessed as reduction in cell viability incubated for 72 hrs by MTT assay; type: functional, cell-based; settings: DLD-1, 72 h
HCT-116 [4] = experiment: Inhibition of DPAGT1 protein expression in human HCT-116 cells at 0.2 uM incubated for 24 hrs by Western blot analysis; type: functional, cell-based
SiHa [5] = experiment: Inhibition of DPAGT1 protein expression in human SiHa cells at 0.2 uM incubated for 24 hrs by Western blot analysis; type: functional, cell-based
KB = experiment: Cytotoxicity in human KB cells assessed as reduction in cell viability incubated for 72 hrs by MTT assay; type: functional, cell-based
[6] = Synergistic cytotoxicity in human PD002 cells assessed as FIC at 0.2 uM incubated for 72 hrs in presence of 0.031 uM paclitaxel by IncuCyte live cell analysis imaging system based assay; type: functional
[7] = Synergistic cytotoxicity in human PD002 cells assessed as FIC at 0.2 uM incubated for 72 hrs in presence of 0.0049 uM paclitaxel by IncuCyte live cell analysis imaging system based assay; type: functional
[8] = Synergistic cytotoxicity in human PD002 cells assessed as FIC at 0.1 uM incubated for 72 hrs in presence of […] paclitaxel by IncuCyte live cell analysis imaging system based assay; type: functional
[9] = target: T1, UDP-N-acetylglucosamine--dolichyl-phosphate N-acetylglucosaminephosphotransferase (Homo sapiens) (UniProt Q9H3H5); experiment: Inhibition of DPAGT1 in human PANC-1 cells assessed as reduction in snail protein expression incubated for 24 hrs by Western blot analysis; type: cell-based
T1 sequence (whole entry): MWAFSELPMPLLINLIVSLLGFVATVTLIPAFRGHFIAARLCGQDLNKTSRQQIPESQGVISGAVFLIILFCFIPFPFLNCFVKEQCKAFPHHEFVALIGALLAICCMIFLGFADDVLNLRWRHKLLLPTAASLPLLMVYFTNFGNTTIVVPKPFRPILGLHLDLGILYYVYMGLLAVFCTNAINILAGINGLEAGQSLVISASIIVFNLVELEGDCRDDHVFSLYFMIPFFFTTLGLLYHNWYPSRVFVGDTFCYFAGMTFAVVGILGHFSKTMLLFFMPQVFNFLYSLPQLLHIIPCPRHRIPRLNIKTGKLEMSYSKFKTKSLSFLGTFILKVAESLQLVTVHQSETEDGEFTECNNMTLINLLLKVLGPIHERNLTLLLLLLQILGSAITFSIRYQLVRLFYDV

[10] = Synergistic cytotoxicity in human PD002 cells assessed as FIC at 0.1 uM incubated for 72 hrs in presence of 0.63 uM paclitaxel by IncuCyte live cell analysis imaging system based assay; type: functional
Vero = experiment: Cytotoxicity in African green monkey Vero cells assessed as reduction in cell viability incubated for 72 hrs by MTT assay; type: cell-based; settings: Chlorocebus sabaeus
SiHa [11] = experiment: Cytotoxicity in human SiHa cells assessed as reduction in cell viability incubated for 72 hrs by MTT assay; type: functional, cell-based
ASPC1 [12] = experiment: Cytotoxicity in human ASPC1 cells assessed as reduction in cell viability incubated for 72 hrs by MTT assay; type: functional, cell-based; settings: ASPC1, 72 h
[13] = Inhibition of N-terminal 6x-His-tagged Hydrogenivirga-sp. 128-5-R1-1 MraY expressed in Escherichia coli NiCo21(DE3) incubated for 2 hrs by reversed-phase HPLC analysis
[14] = target: T1, UDP-N-acetylglucosamine--dolichyl-phosphate N-acetylglucosaminephosphotransferase (Homo sapiens); experiment: Inhibition of DPAGT1 in human PD002 cells assessed as reduction in snail protein expression incubated for 24 hrs by immunofluorescence staining assay; type: cell-based
PANC-1 [15] = experiment: Inhibition of E-cadherin protein expression in human PANC-1 cells at 0 to 2 uM incubated for 24 hrs by Western blot analysis; type: functional, cell-based; settings: dose microM 0-2, time […]
PD002 [16] = experiment: Inhibition of cell migration in human PD002 cells at 0.1 uM incubated for 0.5 hrs by crystal violet staining based Boyden chamber assay; type: functional
CAPAN-1 [17] = experiment: Cytotoxicity in human CAPAN-1 cells assessed as reduction in cell viability incubated for 72 hrs by MTT assay; type: functional, cell-based; settings: CAPAN-1, 72 h
[18] = target: T1, UDP-N-acetylglucosamine--dolichyl-phosphate N-acetylglucosaminephosphotransferase (Homo sapiens); experiment: Inhibition of DPAGT1 in human SiHa cells assessed as reduction in snail protein expression incubated for 24 hrs by Western blot assay; type: cell-based
[19] = Synergistic cytotoxicity in human PD002 cells assessed as FIC at 2 uM incubated for 72 hrs in presence of 0.020 uM paclitaxel by IncuCyte live cell analysis imaging system based assay; type: functional
PANC-1 [20] = experiment: Cytotoxicity in human PANC-1 cells assessed as reduction in cell viability incubated for 72 hrs by MTT assay; type: functional, cell-based; settings: PANC-1, 72 h
PANC-1 [21] = experiment: Inhibition of DPAGT1 protein expression in human PANC-1 cells at 0.2 uM incubated for 24 hrs by Western blot analysis; type: functional, cell-based
[22] = Inhibition of cell proliferation in human PD002 cells incubated for 72 hrs; type: functional
[23] = Inhibition of N-terminal His9-tagged Methanocaldococcus jannaschii DSM 2661 AglH incubated for 2 hrs using UDP-GlcN-Cg-FITC and alpha-dihydroundecap-renyl phosphate by reversed-phase HPLC analysis
[24] = Synergistic cytotoxicity in human PD002 cells assessed as FIC at 0.2 uM incubated for 72 hrs in presence of 0.020 uM paclitaxel by IncuCyte live cell analysis imaging system based assay; type: functional
PD002 [25] = experiment: Inhibition of E-cadherin protein expression in human PD002 cells at 0 to 2 uM incubated for 24 hrs by Western blot analysis; type: functional, cell-based; settings: dose microM 0-2, time […]
HCT-116 [26] = experiment: Inhibition of DPAGT1 protein expression in human HCT-116 cells at 0.1 to 20 uM incubated for 72 hrs by immunofluorescence assay; settings: dose microM 0.1-20, time 72.0 hrs
ASPC1 [27] = experiment: Inhibition of DPAGT1 protein expression in human ASPC1 cells at 0.2 uM incubated for 24 hrs by Western blot analysis; type: functional, cell-based
PD002 [28] = experiment: Inhibition of DPAGT1 mRNA expression in human PD002 cells at 0 to 10 uM incubated for 24 hrs by RT-qPCR analysis; type: functional, cell-based; settings: dose microM 0-10, time […]
[29] = target: T1, UDP-N-acetylglucosamine--dolichyl-phosphate N-acetylglucosaminephosphotransferase (Homo sapiens); experiment: Inhibition of DPAGT1 in human PD002 cells assessed as reduction in snail protein expression incubated for 24 hrs by Western blot analysis; type: cell-based
HCT-116 [30] = experiment: Inhibition of E-cadherin protein expression in human HCT-116 cells at 0 to 2 uM incubated for 24 hrs by Western blot analysis; type: functional, cell-based; settings: dose microM 0-2, time […]
[31] = Inhibition of DPAGT1 protein expression in human HCT-116 cells assessed as DPAGT1 protein level at 0.1 to 20 uM incubated for 24 hrs by Western blot analysis; type: functional; design: scale not given: the % may be the effect or the level left; settings: dose microM 0.1-20

CO[C@H]1[C@@H](O)[C@H](n2ccc(=O)[nH]c2=O)O[C@@H]1[C@@H](O[C@H]1OC(C(=O)NCc2ccc(N3CCC(Oc4ccc(OC(F)(F)F)cc4)CC3)cc2)=C[C@H](O)[C@@H]1O)C(N)=O
Activity [1]: 10% | IC50 (HCT-116 [2]): 15 µM | inhibition (CAPAN-1 [3]): Active | IC50 (DLD-1): 25 µM | inhibition (HCT-116 [4]): Active | inhibition (SiHa [5]): Active | IC50 (KB): 35 µM | FIC [6]: 0.26 | FIC [7]: 0.0096 | FIC [8]: 0.13 | inhibition [9]: Active | FIC [10]: 0.5 | IC50 (Vero): > 50 µM | IC50 (SiHa [11]): 15 µM | IC50 (ASPC1 [12]): 25 µM | IC50 [13]: 10.3 µM | inhibition [14]: Active | inhibition (PANC-1 [15]): inactive | inhibition (PD002 [16]): Active | IC50 (CAPAN-1 [17]): 30 µM | inhibition [18]: Active | FIC [19]: 0.021 | IC50 (PANC-1 [20]): 35 µM | inhibition (PANC-1 [21]): Active | inhibition (INH) [22]: 20% | IC50 [23]: 0.15 µM | FIC [24]: 0.021 | inhibition (PD002 [25]): inactive | inhibition (HCT-116 [26]): inactive | inhibition (ASPC1 [27]): Active | inhibition (PD002 [28]): inactive | inhibition [29]: Active | inhibition (HCT-116 [30]): inactive | Activity [31]: 20%
